US20230190887A1, “TARGETING G3BP AGGREGATION TO PREVENT NEURODEGENERATION” (priority 2019, published 2023)
“Also recorded” adds a separate entry of the source.

Key:
E18 cortical neurons = assay: Aβ-induced neurite degeneration of cortical neurons; assay type: cell-based, rat; conditions: DIV7 E18 cortical neurons, 1 μM Aβ oligomer 16-18 hours, with 10 μM peptide
Protocol: (§1) To test whether the triggering disassembly of stress granules would be protective in Parkinson's and Alzheimer's disease, the inventors employed 1-methyl-4-phenylpyridinium (MPP+)-induced and amyloid β (Aβ)-mediated neurotoxicity models. Rat embryonic day 18 (E18) midbrain neurons cultured for 7 days were treated for 16-18 hours with 100 μM MPP+, see FIGS. 1A and B, while E18 cortical neurons were treated with 1 μM Aβ oligomer, see FIGS. 2A-2B, with or without 10 μM G3BP1 190-208 or 168-189 peptide. As a control, the inventors used non-treated neurons.
FIG. 2: Cell permeable G3BP1 190-208 peptide blocks pathological degeneration beta-amyloid-induced neurotoxicity in cortical neurons. (A) Representative images of NF-labeled (white) E18 cortical neurons. DIV7 cortical neurons were treated with […] (ii) or control (i) and 10 μM 190-208 G3BP1 peptide (iv) or 10 μM 168-189 control peptide (iii) [scale bar=100 μm]. (B) Quantitation of degeneration in cortical neurons treated with 1 μM Aβpeptide-treated neurons after addition of 190-208 G3BP1 or 168-189 control peptide. Solvent treated cells were used as control. […] (N≥95 over 3 cultures; by one-way ANOVA with Tukey HSD post-hoc).

[1] = test system: G3BP1 aggregates in cortical neurons; assay: Endogenous G3BP1 aggregates in Aβ-treated cortical neurons; assay type: cell-based, rat; conditions: Aβ oligomers plus peptide
Source text: Given that the G3BP1 190-208 peptide prevents degeneration induced by treatment with neurotoxins such as MPP+ and Aβ oligomer and decreases G3BP1 aggregates formed due MPP+ and Aβ treatment.
(A) Size of endogenous G3BP1 aggregates per 100 μm of neurite is shown as indicated bins from midbrain cultures under control conditions and after treatment with MPP+alone or with 190-208 G3BP1 or 168-189 peptides. (B) Size distribution of endogenous G3BP1 aggregates per 100 μm of neurite is shown from cortical neurons treated with 1 μM Aβpeptide or with […] 190-208 G3BP1 or 168-189 control peptide. Non-treated neurons were used as a control. […] (N≥90 over 3 cultures; by two-way ANOVA with Tukey HSD post-hoc).

[2] = test system: G3BP1 aggregates in E12.5 motor neurons; assay: Endogenous G3BP1 aggregates in MPP+-treated motor neurons; assay type: cell-based, mouse; conditions: MPP+ plus 10 μM peptide
Protocol: Previous studies have shown that, exposure of midbrain neurons results in formation of stress granules. To test whether treatment of motor neurons with mitotoxin MPP+ results in the formation of stress granules the inventors stained the MPP+-treated neurons for G3BP1 protein.
(A) Quantification of mitotoxin/neurotoxin MPP+-induced degeneration of DIV7 E12.5 motor neuron neurites after exposure of cultures to 100 μM MPP+ and either 10 μM 190-208 G3BP1 or 168-189 control peptide. As controls, neurons treated with solvents were used. (B) Representative images of G3BP1 (green) and NF-labeled (red) E12.5 motor neurons under control or after treatment with 100 μM MPP+ [scale bar=10 μm]. (C) distribution of sizes of endogenous G3BP1 aggregate per 100 μm neurite is shown as indicated bins from motor neurons cultures as treated in (B). (N≥80 neurites over three repetitions; by one-way ANOVA with Tukey HSD post-hoc). […] (D) Endogenous G3BP1 aggregate sizes per 100 μm neurite indicated as bins for motor neurons either untreated or treated with MPP+ alone or with addition of 10 μM 190-208 G3BP1 or 168-189 control peptide. […] (N≥90 over 3 cultures; by one-way ANOVA with Tukey HSD post-hoc)

[3] = test system: G3BP1, TIA1, FMRP, FXR, TDP43 and FUS-TLS aggregates in E18 cortical neurons; assay: RNA binding protein aggregates along axons of Aβ oligomer-treated cortical neurons; assay type: cell-based, rat; conditions: 1 μM Aβ oligomer 2 hours, then peptide for additional 4 hours
Protocol: The data in FIGS. 13A-F and 14A-F raise the possibility that stress granule targeting therapies like the cell permeable G3BP1 190-208 peptide may decrease or even prevent loss of neurons across different types of neurodegenerative diseases. To address this possibility, the current disclosure asked if the cell permeable G3BP1 190-208 peptide could disassemble pathological protein aggregates in neurons. For this, 7 day cortical neuron cultures were treated with 1 μM A[…] oligomer for 2 hours and then treated with cell permeable G3BP1 190-208 peptide or a scramble sequence cell permeable peptide for an additional 4 hours. […] Thus, the cell permeable G3BP1 190-208 peptide can not only prevent RNA binding protein aggregation in axons after exposure to neurotoxins associated AD and PD, but it can also trigger disassembly of these pathological aggregates after they begin to form.
Representative confocal images for G3BP1. […] Quantifications for co:localization of FMRP, FXR, TDP43, FUS-TLS and TIA1 with G3BP1 in axons of E18 cortical neurons treated as in C are shown as average Pearson's coefficient±SEM (N≥120 aggregates over three repetitions and *p≤0.01, **p≤0.005, ***p≤0.001 for entire population distributions by Fishers exact test for FIG. 15B and FIG. 15D; […] neurons over 3 repetitions and *p≤0.01 **p≤0.005, ***p≤0.001 by one-way ANOVA with Tukey HSD post-hoc for FIG. 15E).

E18 midbrain neurons = assay: MPP+-induced neurite degeneration of midbrain neurons; assay type: cell-based, rat; conditions: DIV7 E18 midbrain neurons, 100 μM MPP+ 16-18 hours, with 10 μM peptide
Protocol: as §1
FIG. 1: Cell permeable G3BP1 190-208 peptide rescues MPP+-induced degeneration of midbrain neurons. (A) Representative images for NF-labeled (white) DIV7 E18 midbrain neurons. DIV7 midbrain cultures were treated with 100 μM MPP+ (ii) or control (i) and […] 190-208 G3BP1 peptide (iv) or 168-189 control peptide (iii) [scale bar=100 μm]. (B) Quantification of neurite degeneration in midbrain neurons in control or 100 μM MPP+-treated neurons after addition of 190-208 G3BP1 or 168-189 control peptide. […] (N≥95 over 3 cultures; by one-way ANOVA with Tukey HSD post-hoc).

[4] = listed as 190-208 G3BP1 peptide

YGNKKNNNQNNN-VVEPEPEPEPEPEPEPVSE [G3BP1 190-208 peptide]
neurite degeneration (E18 cortical neurons; listed as 190-208 peptide): significant rescue from Aβ-induced neurite degeneration
neurite degeneration (E18 cortical neurons; listed as G3BP1 190-208): prevented neurite degeneration
penetration into cell bodies and axons (primary MNs): penetration
size of endogenous G3BP1 aggregates per 100 μm of neurite [1]: decrease in the size of G3BP1 aggregates
size of endogenous G3BP1 aggregates per 100 μm of neurite [1, 4]: disassembly of G3BP1 granules
size of endogenous G3BP1 aggregates per 100 μm neurite [2]: decrease in the size of aggregates
size of endogenous G3BP1 aggregates per 100 μm neurite [2, 4]: decrease in the number of larger G3BP1 granules
TIA1, FMRP, FXR, TDP43 and FUS-TLS colocalization with G3BP1 [3]: significantly decreased
size of G3BP1, TIA1, FMRP, FXR, TDP43 and FUS-TLS aggregates along axons [3]: significantly decreased size; also recorded: reduction in amyloid beta treatment dependent G3BP1-associated protein aggregates
neurite degeneration (E18 midbrain neurons; listed as 190-208 peptide): significant decrease in MPP+-induced degeneration
neurite degeneration (E18 midbrain neurons; listed as G3BP1 190-208): prevented neurite degeneration
